The test system of assay [1] is COPD macrophages and alveolar macrophages from cigarette smoke-exposed mice. The settings on record: cited from earlier work.
The test system of assay [2] is rats. The settings on record: rats on a choline-deficient L-amino acid-defined diet; cited from earlier work.
The next assay has as its system mice. The settings on record: NRF2 wild-type and KO mice after administration; cited from earlier work.
Assay [3] relates to rats. The settings on record: cerebral ischemia-reperfusion model; cited from earlier work.
The subject of assay [4] is NQO1 specific enzyme activity in BEAS-2B cells. Briefly: BEAS-2B NQO1 MTT assay. Type of assay: cell-based. The settings on record: BEAS-2B cells, 48 hours with compound, MTT readout, read-out: EC50 of NQO1 specific activity induction. Summed up: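 BEAS-2B cells treated with compound 48 h at 37° C, 5% CO2, then lysed; NQO1 activity in lysate measured kinetically by MTT cocktail at Absorbance 570 nm over 30 min. EC50 for induction from Delta OD/min versus log concentration, 3-parameter fit; Cell Titer Glo run on lysate aliquot.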
A general note: Tetrazolium assays rely on reduction of a dye to a coloured formazan, in cell work by metabolically active cells.

Results on 14 molecules are retold here after patent US10604509B2, “Nrf2 regulators” (GlaxoSmithKline Intellectual Property Development Limited, priority 2015, dated 2020).

Where a name gives a salt, the structure may show the parent alone. Read-outs that look alike come from different tables or passages of the source.

Regarding `C[S+]([O-])CCCCN=C=S` (stereo not shown) [Sulforaphane], the “expression of Macrophage Receptor with Collagenous structure (MARCO)” value in assay [1] (COPD macrophages and alveolar macrophages from cigarette smoke-exposed mice) is recorded as “increases the expression of Macrophage Receptor with Collagenous structure (MARCO)”. For the same molecule, the “bacterial phagocytosis and bacterial clearance” value in assay [1] (Pseudomonas aeruginosa, non-typable Haemophilus influenzae, ex vivo and in vivo) is “improving in these cells bacterial phagocytosis”.
As to `Cc1c(-c2cnccn2)ssc1=S` [oltipraz], the “progression of histologic abnormalities, especially hepatic fibrosis” value in the assay with rats [2] is given as “significantly attenuated progression of histologic abnormalities”.
For the molecule `CC(C)(C)c1cc(O)ccc1O` [tert-butylhydroquinone (tBHQ), tert-butylhydroquinone], in the assay with mice, the cortical glutathione levels result is reported as “increased in NRF2 wild-type but not KO mice”. The cortical damage result in the assay on rats [3] was “reduced cortical damage”.
Consider `O=C(NCc1ccccn1)Nc1nnc(-c2ccco2)o1` [NK-252], for which, in the assay on rats [2], the “progression of histologic abnormalities, especially hepatic fibrosis” value was “significantly attenuated progression of histologic abnormalities”.
One may read the EC50 as the midpoint of the concentration-response curve. `CC[C@@H]1CN(Cc2cc([C@H](CC(=O)O)c3ccc4c(nnn4C)c3C)ccc2C)Cc2ccccc2O1` [Example 49, (S)-3-(1,4-Dimethyl-1H-benzo[d][1,2,3]triazol-5-yl)-3-(3-(((R)-2-ethyl-2,3-dihydrobenzo[f][1,4]oxazepin-4(5H)-yl)methyl)-4-methylphenyl)propanoic Acid, Formic Acid Salt]: the 50% effective concentration (EC50) in assay [4] (Homo sapiens, BEAS-2B, 48 h) is 100 to 1000 nM.
`Cc1ccc(C(c2ccc3c(nnn3C)c2C)C(C)(C)C(=O)O)cc1CN1Cc2cccc(F)c2OC(C)(C)C1` (stereo not shown) [Example 35, 3-(1,4-Dimethyl-1H-benzo[d][1,2,3]triazol-5-yl)-3-(3-((9-fluoro-2,2-dimethyl-2,3-dihydrobenzo[f][1,4]oxaz-epin-4(5H)-yl)methyl)-4-methylphenyl)-2,2-dimethylpropanoic acid]: the concentration for a half-maximal effect (EC50) in assay [4] (Homo sapiens, BEAS-2B, 48 h) was in the range of 1 to 10 nM.
In the case of `Cc1ccc(C(CC(=O)O)c2ccc3c(nnn3C)c2C)cc1CN1Cc2cc(C#N)ccc2OC(C)(C)C1` (single isomer, unassigned) [Example 172], the EC50 in assay [4] was in the range of 10 to 100 nM.
Take `CC[C@@H]1CN(Cc2cc([C@@H](c3ccc4c(nnn4CC)c3F)[C@@H](C)C(=O)O)ccc2C)Cc2ncccc2O1` [Example 191, (2R,3S)-3-(3-(((R)-2-Ethyl-2,3-dihydropyrido[2,3-f][1,4]oxazepin-4(5H)-yl)methyl)-4-methylphenyl)-3-(1-ethyl-4-fluoro-1H-benzo[d][1,2,3]triazol-5-yl)-2-methylpropanoic acid]: the EC50 in assay [4] (Homo sapiens, BEAS-2B, 48 h) was 1 to 10 nM.
The same measure, in the same setting: for `Cc1ccc(C2(C)CN(Cc3cc(C(CC(=O)O)c4ccc5c(nnn5C)c4C)ccc3C)CCO2)cc1` (stereo not shown) [Example 18, 3-(1,4-Dimethyl-1H-benzo[d][1,2,3]triazol-5-yl)-3-(4-methyl-3-((2-methyl-2-(p-tolyl)morpholino)methyl)phenyl)propanoic Acid, Formic Acid Salt] the value was 1000 to 10000 nM; for `CC[C@@H]1CN(Cc2cc(C(CC(=O)O)c3ccc4c(nnn4C)c3C)ccc2C)Cc2ncccc2O1` (stereo partly drawn) [Example 79, 3-(1,4-Dimethyl-1H-benzo[d][1,2,3]triazol-5-yl)-3-(3-(((R)-2-ethyl-2,3-dihydropyrido[2,3-f][1,4]oxazepin-4(5H)-yl)methyl)-4-methylphenyl)propanoic acid], 1000 to 10000 nM; for `CC[C@@H]1CN(Cc2cc(C(CCc3cn(CC)nn3)C(C)(C)C(=O)O)ccc2C)Cc2ccncc2O1` (stereo partly drawn) [Example 220, 5-(1-Ethyl-1H-1,2,3-triazol-4-yl)-3-(3-(((R)-2-ethyl-2,3-dihydropyrido[4,3-f][1,4]oxazepin-4(5H)-yl)methyl)-4-methylphenyl)-2,2-dimethylpentanoic Acid, 3.2 Trifluoroacetic Acid Salt], 10 to 100 nM.
For the molecule “3-(1,4-dimethyl-1H-benzo[d][1,2,3]triazol-5-yl)-3-(3-((8-methoxy-4-methyl-4,5-dihydro-1H-benzo[c]azepin-2(3H)-yl)methyl)-4-methylphenyl)propanoic Acid [Example 7]”, the EC50 in assay [4] fell in the range of 1000 to 10000 nM.
Take `CC[C@@H]1CN(Cc2cc([C@@H](CC(=O)O)c3ccc4c(nnn4C)c3C)ccc2C)Cc2cccc(F)c2O1` [Example 60, (R)-3-(1,4-Dimethyl-1H-benzo[d][1,2,3]triazol-5-yl)-3-(3-(((R)-2-ethyl-9-fluoro-2,3-dihydrobenzo[f][1,4]oxazepin-4(5H)-yl)methyl)-4-methylphenyl)propanoic acid, Sodium salt]: the EC50 in assay [4] (Homo sapiens, BEAS-2B, 48 h) fell in the range of 10 to 100 nM.
Turning to `COc1ccc2c(c1)CN(Cc1cc([C@H](CC(=O)O)c3ccc4c(nnn4C)c3C)ccc1C)CC(C)(C)O2` [Example 165, (S)-3-(1,4-Dimethyl-1H-benzo[d][1,2,3]triazol-5-yl)-3-(3-((7-methoxy-2,2-dimethyl-2,3-dihydrobenzo[f][1,4]oxazepin-4(5H)-yl)methyl)-4-methylphenyl)propanoic acid, 0.5 Formic Acid Salt], in assay [4] (Homo sapiens, BEAS-2B, 48 h), the 50% effective concentration (EC50) was in the range of 1 to 10 nM.
